Read-outs that look alike come from different tables or passages of the source.
How the values were obtained:
[1] = system: HCV genotype 1b replicon; assay: HCV replicon assay, genotype 1b replicon EC50; assay type: cell-based, Hepatitis C virus; conditions: Hepatitis C virus, genotype 1b replicon; read-out: EC50 [gt-1b]
Summary of the method: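 Replicon cells (Neo^r, some luciferase:Neo^r fusion); G418 removed at plating; compound dilution series, 24-48 h. Readout: RNA by 32P-probe hybridization/protection or TaqMan, normalized to cyclophilin A RNA, or luciferase. EC50 vs DMSO control, 4-parameter fit.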

[2] = target: HCV NS3/4A protease A156T mutant (Hepatitis C virus genotype 1b, UniProt P26663, A1182T); assay: HCV NS3/4A protease time-resolved fluorescence (TRF) assay, Ki against A156T mutant; assay type: biochemical; conditions: read-out: IC50 [gt-1b A156T]
Experimental: (§1) Measuring NS3/4A Inhibitory Activity (Ki) Against Genotype 1b, Against A156T Mutants and Against Genotype 3a
(§2) One assay for measuring inhibitory activity is HCV NS3 protease time-resolved fluorescence (TRF) assay as described below and in Mao et al., Anal. Biochem. 373:1-8, 2008 and International Patent Application Publication WO 2006/102087. A NS3 protease assay can be performed, for example, in a final volume of 20 μl assay buffer containing 50 mM HEPES, pH 7.5, 150 mM NaCl, 15% glycerol, 0.15% TRITON X-100, 10 mM DTT, and 0.1% PEG 8000. NS3 and NS4A protease is pre-incubated with various concentrations of inhibitors in DMSO for 30 min. The reaction is initiated by adding the TRF peptide substrate (final concentration 25 nM). NS3 mediated hydrolysis of the substrate was run for 2.5 hours at room temperature. Product fluorescence is detected using A Pherastar Plus plate reader (BMG) or Envision (Perkin Elmer Life and Analytical Sciences with excitation at 340 nm and emission at 615 nm using the appropriate delay time optimized for the europium fluorescence probe. Testing concentrations of different enzyme forms are selected to result in a signal to background ratio (S/B) of 10-30. IC50 values are derived using a standard four-parameter fit to the data. Ki values are derived from IC50 values using the following formula, IC50=Ki(1+[S]/KM), Eqn (1), where [S] is the concentration of substrate peptide in the reaction and KM is the Michaelis constant. See P. Gallinari et al., 38 BIOCHEM. 5620-32 (1999); P. Gallinari et al., 72 J. VIROL. 6758-69 (1998); M. Taliani et al., 240 ANAL. BIOCHEM. 60-67 (1996); Mao et al., Analytical Biochemistry 373: 1-8, 2008.
(§3) The assay described above was run against genotype 1b at a concentration of 0.2 nM, against A156T mutant strains at a concentration of 0.4 nM, and against genotype 3a at a concentration of 0.025 nM.

[3] = target: HCV NS3/4A protease genotype 3a (Hepatitis C virus genotype 3a, UniProt Q81495); assay: HCV NS3/4A protease time-resolved fluorescence (TRF) assay, Ki against genotype 3a; assay type: biochemical
Experimental: as §1, §2, §3

[4] = target: HCV NS3/4A protease genotype 1b (Hepatitis C virus genotype 1b, UniProt P26663); assay: HCV NS3/4A protease time-resolved fluorescence (TRF) assay, Ki against genotype 1b; assay type: biochemical; conditions: IC50 [gt-1b], NS3/4A protease TRF assay, genotype 1b enzyme 0.2 nM
Summary of the method: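 Ki values come from IC50 fits corrected for substrate concentration and KM. The time-resolved fluorescence protease reaction used 25 nM peptide substrate, 2.5 h, room temperature, pH 7.5 HEPES buffer, after 30 min enzyme–inhibitor preincubation.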

[5] = NS3/4A gt-1b A156T mutant, enzyme 0.4 nM
[6] = NS3/4A protease TRF assay, A156T mutant enzyme 0.4 nM

## Cc1nc2ccccc2c2c1O[C@@]1(CC2)C[C@H]2C(=O)N[C@]3(C(=O)NS(=O)(=O)C4(C)CC4)C[C@H]3/C=C\CCCCC[C@H](NC(=O)NC(C)(C)C)C(=O)N2C1 [Example 78, (2S,6S,12Z,13aS,14aR,16aS)-6-[(tert-butylcarbamoyl)amino]-5′-methyl-N-[(1-methylcyclopropyl)sulfonyl]-5,16-dioxo-1,1′,2′,6,7,8,9,10,11,13a,14,15,16,16a-tetradecahydrospiro[cyclopropa[e]pyrrolo[1,2-a][1,4]diazacyclopentadecine-2,3′-pyrano[2,3-c]quinoline]-14a(5H)-carboxamide]
[1]
  EC50: 85 nM
[2]; [5]
  IC50: 3.11 nM

## Cc1nc2ccccc2c2c1O[C@]1(CC2)C[C@H]2C(=O)N[C@]3(C(=O)NS(=O)(=O)C4(C)CC4)C[C@H]3/C=C\CCCCC[C@H](NC(=O)OC3(C)CC3)C(=O)N2C1 [Example 79, 1-methylcyclopropyl [(2R,6S,12Z,13aS,14aR,16aS)-5′-methyl-14a-{[(1-methylcyclopropyl)sulfonyl]carbamoyl}-5,16-dioxo-1,1′,2′,5,6,7,8,9,10,11,13a,14,14a,15,16,16a-hexadecahydrospiro[cyclopropa[e]pyrrolo[1,2-a][1,4]diazacyclopentadecine-2,3′-pyrano[2,3-c]quinolin]-6-yl]carbamate]
[1]
  EC50: 1.69 nM
[2]; [5]
  IC50: 0.151 nM

## COc1cc(Cl)c2nc(C(F)(F)F)c3c(c2c1)CC[C@]1(C[C@H]2C(=O)N[C@]4(C(=O)NS(=O)(=O)C5(C)CC5)C[C@H]4/C=C\CCCCC[C@H](NC(=O)OC(C)(C)C)C(=O)N2C1)O3 [Example 398, tert-butyl [(2R,6S,12Z,13aS,14aR,16aS)-7′-chloro-9′-methoxy-14a-{[(1-methylcyclopropyl)sulfonyl]carbamoyl}-5,16-dioxo-5′-(trifluoromethyl)-1,1′,2′,5,6,7,8,9,10,11,13a,14,14a,15,16,16a-hexadecahydrospiro[cyclopropa[e]pyrrolo[1,2-a][1,4]diazacyclopentadecine-2,3′-pyrano[2,3-c]quinolin]-6-yl]carbamate]
[3]
  IC50: 2.35 nM
[2]; [6]
  IC50: 0.496 nM
[4]
  IC50: 0.025 nM

## COc1cc(Cl)c2nc(C(F)(F)F)c3c(c2c1)CC[C@]1(C[C@H]2C(=O)N[C@]4(C(=O)NS(=O)(=O)C5(C)CC5)C[C@H]4/C=C\CCCCC[C@H](NC(=O)OCC(C)C)C(=O)N2C1)O3 [Example 399, 2-methylpropyl [(2R,6S,12Z,13aS,14aR,16aS)-7′-chloro-9′-methoxy-14a-{[(1-methylcyclopropyl)sulfonyl]carbamoyl}-5,16-dioxo-5′-(trifluoromethyl)-1,1′,2′,5,6,7,8,9,10,11,13a,14,14a,15,16,16a-hexadecahydrospiro[cyclopropa[e]pyrrolo[1,2-a][1,4]diazacyclopentadecine-2,3′-pyrano[2,3-c]quinolin]-6-yl]carbamate]
[3]
  IC50: 6.45 nM
[2]; [6]
  IC50: 1.45 nM
[4]
  IC50: 0.027 nM

## COc1ccc2nc(C(F)(F)F)c3c(c2c1)[C@](C)(O)C[C@]1(C[C@H]2C(=O)N[C@]4(C(=O)NS(=O)(=O)C5(C)CC5)C[C@H]4/C=C\CCCCC[C@H](NC(=O)OC4(C)CCC4)C(=O)N2C1)O3 [Example 507, 1-methylcyclobutyl [(1′R,2S,6S,12Z,13aS,14aR,16aS)-1′-hydroxy-9′-methoxy-1′-methyl-14a-{[(1-methylcyclopropyl)sulfonyl]carbamoyl}-5,16-dioxo-5′-(trifluoromethyl)-1,1′,2′,5,6,7,8,9,10,11,13a,14,14a,15,16,16a-hexadecahydrospiro[cyclopropa[e]pyrrolo[1,2-a][1,4]diazacyclopentadecine-2,3′-pyrano[2,3-c]quinolin]-6-yl]carbamate]
[3]
  IC50: 4.45 nM
[2]; [6]
  IC50: 2.37 nM
[4]
  IC50: 0.025 nM

## C=C[C@@H]1C[C@]1(NC(=O)[C@@H]1C[C@]23CCc4c(c(nc5ccc(OC)cc45)CCCCC[C@@H]4C[C@H]4OC(=O)N[C@@H](C(C)(C)C)C(=O)N1C2)O3)C(=O)NS(=O)(=O)C1(C)CC1 [Example 527]
[3]
  IC50: 0.679 nM
[4]
  IC50: 0.026 nM
